The values that follow come from patent US12186327B2, “Oral allopregnanolone compositions and methods of use” (Lipocine Inc., priority 2022, dated 2025).

For series [1] the following is noted: 30 mg capsule, cited from earlier work.
For series [2] the following is noted: once daily 30 mg capsule, 14 day treatment; cited from earlier work.
In another series the target is a1b2g2 GABAA receptor (Homo sapiens, UniProt P14867+P47870). As to conditions: synaptic GABAA receptor; cited from earlier work.
A short description of series [3]: Allopregnanolone solubility in SBE-β-CD solution. The class given is physicochemical. The note with it: for solubility: aqueous with cosolvent or surfactant or cyclodextrin. As to the method:
The solubilized fraction of allopregnanolone began to decline, as observed by precipitation, when allopregnanolone concentration was above 8 mg/ml. The amount of allopregnanolone in the cyclodextrin solution can only be enabled by up to about 0.6% w/w loading amount of the composition fill. Moreover, high cyclodextrin amounts required to solubilize allopregnanolone also present safety concerns. In some aspects, the compositions and dosage forms of this invention can comprise higher allopregnanolone loading amounts (>5 mg/ml or 5 mg/g) than ones formulated in non-encapsulated SBE-β-CD or any cyclodextrin solution composition.

The conditions of series [4]: in vivo; cited from earlier work.
For series [5] the following is noted: oral daily doses of 16-24 g for 14 days, human volunteers; cited from earlier work.

Values after ≈ are worked out from the molar mass of the structure shown. Where two headings read alike, the source gives them in different places.

Chain of a1b2g2 GABAA receptor (P14867 28-456): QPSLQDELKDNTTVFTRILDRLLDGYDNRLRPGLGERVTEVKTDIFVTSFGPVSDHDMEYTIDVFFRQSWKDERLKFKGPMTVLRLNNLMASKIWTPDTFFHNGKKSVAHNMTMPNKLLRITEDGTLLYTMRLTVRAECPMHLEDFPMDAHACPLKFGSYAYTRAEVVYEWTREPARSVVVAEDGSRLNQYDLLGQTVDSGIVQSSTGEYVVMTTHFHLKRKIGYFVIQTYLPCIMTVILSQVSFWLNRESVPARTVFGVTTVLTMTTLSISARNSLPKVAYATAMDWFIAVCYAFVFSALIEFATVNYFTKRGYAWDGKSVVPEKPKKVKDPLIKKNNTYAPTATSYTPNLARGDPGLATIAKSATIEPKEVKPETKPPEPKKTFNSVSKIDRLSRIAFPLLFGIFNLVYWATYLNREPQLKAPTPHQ
Chain of a1b2g2 GABAA receptor (P47870 25-512 limits assumed): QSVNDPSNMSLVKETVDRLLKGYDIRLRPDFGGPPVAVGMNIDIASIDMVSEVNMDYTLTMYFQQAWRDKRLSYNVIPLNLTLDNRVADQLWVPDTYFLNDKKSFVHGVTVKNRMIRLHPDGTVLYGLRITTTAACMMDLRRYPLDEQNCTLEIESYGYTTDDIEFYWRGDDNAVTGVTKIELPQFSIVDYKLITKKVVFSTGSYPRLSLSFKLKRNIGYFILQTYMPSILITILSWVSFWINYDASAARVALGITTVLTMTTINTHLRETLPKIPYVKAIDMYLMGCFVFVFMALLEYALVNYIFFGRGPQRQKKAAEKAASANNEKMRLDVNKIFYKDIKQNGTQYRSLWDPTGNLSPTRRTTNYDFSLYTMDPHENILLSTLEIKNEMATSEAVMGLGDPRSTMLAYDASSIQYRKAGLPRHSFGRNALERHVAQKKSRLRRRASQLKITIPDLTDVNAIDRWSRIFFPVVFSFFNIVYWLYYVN
Chain of a1b2g2 GABAA receptor (P18507 40-475 partner): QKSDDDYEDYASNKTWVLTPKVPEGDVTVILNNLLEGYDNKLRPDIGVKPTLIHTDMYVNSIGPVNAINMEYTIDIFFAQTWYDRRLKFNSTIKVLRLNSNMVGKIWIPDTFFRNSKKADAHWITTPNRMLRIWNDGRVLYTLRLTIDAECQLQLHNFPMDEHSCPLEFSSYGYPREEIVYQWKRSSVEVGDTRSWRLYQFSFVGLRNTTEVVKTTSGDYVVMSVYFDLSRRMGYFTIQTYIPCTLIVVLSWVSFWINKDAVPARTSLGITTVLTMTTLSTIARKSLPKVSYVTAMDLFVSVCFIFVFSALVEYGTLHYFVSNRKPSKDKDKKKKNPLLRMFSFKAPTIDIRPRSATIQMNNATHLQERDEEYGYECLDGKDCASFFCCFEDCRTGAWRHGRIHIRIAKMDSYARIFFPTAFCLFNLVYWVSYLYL

Turning to `C[C@@]1(O)CC[C@H]2[C@H](CC[C@@H]3[C@@H]2CC[C@]2(C)[C@@H](C(=O)Cn4cc(C#N)cn4)CC[C@@H]32)C1` [ZURANOLONE], the Cmax result in series [1] (single dose with a standard fat meal) is on record as “about 64 ng/ml”; in series [1] (single dose, fasted condition), “about 23 ng/ml”. In addition, in series [2], the “efficacy in postpartum depression” value is “acceptable efficacy”. For the same compound, the “less potent than allopregnanolone, based on a1b2g2 Qpatch EC50” value at a1b2g2 GABAA receptor is reported as “about 33%”.
Regarding `CC(=O)[C@H]1CC[C@H]2[C@@H]3CC[C@H]4C[C@H](O)CC[C@]4(C)[C@H]3CC[C@]12C` [allopregnanolone, 3α-hydroxy-5α-pregnan-20-one], the solubility in series [3] (cyclodextrin (SBE-β-CD) solution, read-out: allopregnanolone concentration above which the solubilized fraction declined (precipitation)) was greater than 8000 µg/mL; in series [3] (in 24% w/v non-encapsulated SBE-β-CD solution, read-out: allopregnanolone solubility), roughly 6000 µg/mL (≈ 18.8 mM). Moreover, the “loading amount of the composition fill enabled in cyclodextrin solution” value in series [3] (cyclodextrin solution) is on record as “up to 0.6 % w/w”. Also, in series [4], the oral bioavailability entry is given as “low”.
hydroxy propyl-β-CD: the digestive problems entry in series [5] was “increased incidence of soft stools and diarrhea”.
